# In publication PMC9694488, “Amyloid beta and its naturally occurring N-terminal variants are potent activators of human and mouse formyl peptide receptor 1” (The Journal of Biological Chemistry, 2022):
# What was measured:
# hFPR1 [1] = conditions: compared with this study; ref Le et al. and Slowik et al. (35, 42); cited from earlier work
# [2] = CD spectroscopy (secondary structure); assay type: physicochemical; conditions: 30 μM in C1, sonicated 10 min, n = 3, N = 1
# Procedure: CD spectra were recorded (JASCO J-1500 spectrometer) in a 1 mm High Precision Cell (Hellma Analytics). Data were processed in Spectra Analysis by JASCO and were plotted by Origin.
# human and mouse FPRs = assay: Ca2+ imaging, FPR-transfected HEK293T (several human and mouse FPRs taken together); assay type: cell-based
# Procedure: (§2) All peptides were thawed at room temperature approximately 1 h before each functional experiment, as this time was needed to prepare the compound plates for each measurement.
# (§3) HEK293T cells (ATCC) were cultured in Dulbecco’s Modified Eagle’s medium (DMEM, Biowest) supplemented with 10% (v/v) heat-inactivated fetal calf serum (FCS, Pan Biotech), 1 unit/ml penicillin-streptomycin (Biowest), and 2 mM L-glutamine (Biowest) until 80% confluence. For transfection, approximately 2000 cells were seeded in each well of poly-D-lysine–coated (PDL) (10 μg/ml in PBS, Sigma) black optical 96-well μCLEAR-plates (Greiner Bio-One). Cells were transfected after 24 h using jetPEI (Polyplus-transfection SA) with 0.125 μg of DNA plasmids encoding the respective receptors and equal amounts of a plasmid encoding the G protein subunit Gα16 since this subunit is needed to trigger FPR-dependent calcium signals in HEK293 cells ([50], [70]). The medium of transfected cells was changed 24 h after transfection. For mock transfections, the proportion of the FPR-containing plasmids were substituted by an empty pcDNA3.1 vector.
# (§4) Cell population responses of transfected HEK293T cells and U87 cells were recorded using a Flexstation III microplate reader (Molecular Devices). Briefly, cells were incubated with 2 μM Calbryte 520 AM (AAC Bioquest) for 2 h at room temperature in C1 assay buffer with 5 mM glucose (Carl Roth). Before each experiment, cells were rinsed three times with C1. Experiments with HEK293T cells were conducted 48 h after transfection, while experiments with U87 cells were performed 24 h after seeding. Acquisition of baseline fluorescence was performed for 25 s before ligand application, and cell population response was measured for 125 s after application.
# hFPR3 = assay: Ca2+ imaging, HEK293T transiently transfected with hFPR3
# Procedure: as §2, §3, §4
# mouse and human FPR1 = system: mouse and human FPR1; set-up: method as in Tiffany et al.; conditions: ref Tiffany et al.; cited from earlier work
# ThT aggregation assay = assay type: physicochemical
# Procedure: DMSO. ThT (Sigma-Aldrich) stock solutions were dissolved at 1 mM in the respective buffer, sterile filtered with […] pore membranes, and stored at −20 °C. […] Fluorescence measurements were carried out as 100 μl triplicates in black optical 384-well μCLEAR-plates (Greiner Bio-One) at 37 °C with excitation at 440 nm and emission at 484 nm in a FlexStation III microplate reader within 15 min after thawing of the peptides. Signals were measured in intervals of 60 s for 120 min and were shaken for 3 s before each read.
# mFpr3 = assay: Ca2+ imaging, HEK293T transiently transfected with mFpr3; assay type: cell-based, mouse; conditions: Aβ1-42 from P&E in C1 buffer; n = 3, N = 2
# hFPR2 = assay: Ca2+ imaging, HEK293T transiently transfected with hFPR2; assay type: cell-based, human
# Procedure: as §2, §3, §4
# hFPR1, hFPR2, hFPR3 = assay: Ca2+ imaging, human FPRs taken together; assay type: cell-based; conditions: transfected HEK293T
# monocytes and microglia = conditions: cited from earlier work
# Excerpt: Factors such as the secondary structure, 3D conformation, and aggregation therefore seem to be of high importance for the precise activation pattern, and different receptor subtypes seem to prefer different peptide structures or exposed surfaces. Multiple previous studies have already shown that different buffer systems and solvents can critically influence properties of Aβ such as its aggregation kinetics and the structure ...
# [3] = system: rat microglia and astrocytes; conditions: cited from earlier work
# Excerpt: (§1) The activation of PRRs by Aβ has become a recent focus in AD research because they have a special ability to potently trigger the reactive state ([14], [25]). Among these PRRs, FPRs are one of the promising targets for AD research ([12]). They belong to a small gene family of G protein–coupled receptors with three members in humans and seven in mice ([26]). FPRs are primarily expressed in the innate and adaptive immune system, where they contribute to the detection and elimination of bacterial pathogens ([27], [28], [29], [30]). However, they are also expressed in a number of cell types in the ...
# human and murine FPR2 = conditions: cell lines transfected with human and murine FPR2; cited from earlier work
# Excerpt: as §1
# [4] = system: neutrophils and murine glial cells; conditions: cited from earlier work
# Excerpt: as §1
# [5] = system: primary murine glia and in vitro FPR expression systems; conditions: cited from earlier work
# Excerpt: as §1
# [6] = Transmission electron microscopy of aggregates; assay type: physicochemical; conditions: 30 μM, 24 h incubation
# Excerpt: Samples were then stained with 4% uranyl acetate. Subsequently, TEM images were acquired (JEOL 1400 Transmission Electron Microscope) and then processed in ImageJ.
# mFpr2 = assay: Ca2+ imaging, HEK293T transiently transfected with mFpr2; assay type: cell-based, mouse
# Procedure: as §2, §3, §4
# hFPR1 [7] = assay: Ca2+ imaging, HEK293T transiently transfected with hFPR1; assay type: cell-based, human
# mFpr1 = assay: Ca2+ imaging, HEK293T transiently transfected with mFpr1; assay type: cell-based, mouse; conditions: for Ca2+ response, mFpr1: n = 3, N = 2
# [8] = 5 μM Aβ1-42 from P&E, n = 3, N = 1
# [9] = Aβ1-42 from Sigma-Aldrich, 10 μM, n = 3, N = 2
# [10] = 5 μM Aβ1-42 from P&E dissolved in DMSO vs C1, n = 3, N = 2
# [11] = Ca2+ imaging, transfected HEK293T + Gα16, Calbryte 520, C1 buffer pH 7.2, n = 3, N = 1
# [12] = HFIP-treated Aβ1-42 from Anaspec, 10 μM, n = 3, N = 2
# [13] = different suppliers, buffers, storage, solvents
# [14] = Aβ1-42 from Synpeptide, 10 μM, n = 3, N = 2
substance,measurement,setting,value
"Aβ1-42: Amyloid beta peptide, human WT sequence; from Peptides&Elephants, Anaspec (untreated or HFIP-treated), Sigma-Aldrich, Synpeptide",hFPR1 response to Aβ1-42 in earlier studies,hFPR1 [1],far less pronounced
same,β-turn proportion in comparison with the Anaspec peptides,[2]; Aβ1-42 from P&E,significantly elevated β-turn proportions
same,β-turn proportion in comparison with the Anaspec peptides,[2]; Aβ1-42 from Synpeptide,significantly elevated β-turn proportions
same,FPR responses in HBSS,"human and mouse FPRs; 5 μM Aβ1-42 from P&E dissolved in HBSS, n = 3, N = 1",complete loss of nearly all FPR responses
same,FPR responses in C1 compared with HBSS and Tris–NaCl,human and mouse FPRs; [8],most robust activation of human and mouse FPRs in C1
same,FPR response pattern after extended storage,"human and mouse FPRs; 10 μM Aβ1-42 (Synpeptide), stored in C1 at -20 °C for 6 months vs freshly dissolved, n = 1, N = 2",Alterations of FPR responses
same,Ca2+ response pattern of mouse and human FPRs,human and mouse FPRs; [9],elicited a similar response pattern as that of P&E
same,"Ca2+ response, mouse and human FPRs other than mFpr1","human and mouse FPRs; non-HFIP–treated Aβ1-42 from Anaspec, 10 μM, n = 3, N = 2",failed to activate any other mouse or human FPR
same,increase of hFPR3 response by DMSO,hFPR3; [10],32%
same,hFPR3 response in Tris–NaCl versus C1,hFPR3; [8],did not significantly alter the responses of hFPR3
same,"threshold for minimal detectable activation, hFPR3",hFPR3; [11],3 µM
same,"Ca2+ response, hFPR3",hFPR3; [12],"weakly activated hFPR3, mFpr1, and mFpr2"
same,"hFPR3 activation over all suppliers, buffers and solvents",hFPR3; [13],activated under almost all conditions
same,activation of mouse and human FPR1 in an earlier study,mouse and human FPR1,failed to detect any activation of mouse and human FPR1
same,capability to form aggregates in HBSS,"ThT aggregation assay; Aβ1-42 from P&E, 22.5 μM, in HBSS, 37 °C",strong reduction in the capability to form aggregates
same,ThT fluorescence kinetics in the first 2 h,"ThT aggregation assay; Aβ1-42 from Sigma-Aldrich, 22.5 μM in C1, 37 °C",did not drastically change
same,ThT fluorescence kinetics in the first 2 h,"ThT aggregation assay; Aβ1-42 from Synpeptide, 22.5 μM in C1, 37 °C",did not drastically change
same,ThT fluorescence kinetics in the first 2 h,"ThT aggregation assay; HFIP-treated Aβ1-42 from Anaspec (aggregation control), 22.5 μM, C1 with 0.2% DMSO, 37 °C",showed the expected increase
same,ThT fluorescence kinetics in the first 2 h,"ThT aggregation assay; non-HFIP–treated Aβ1-42 from Anaspec, 22.5 μM in C1, 37 °C",showed a reduction of fluorescence
same,"Ca2+ response, mFpr3",mFpr3,did not respond
same,"Ca2+ response, hFPR2",hFPR2; [14],the responses of hFPR1 and hFPR2 were lost
same,"threshold for minimal detectable activation, hFPR2",hFPR2; [11],3 µM
same,response of hFPRs (in addition to hFPR2),"hFPR1, hFPR2, hFPR3",all other hFPRs also responded
same,FPR-dependent signaling with progressing aggregation,monocytes and microglia,lost FPR-dependent signaling with progressing aggregation
same,cAMP and ERK phosphorylation in rat microglia and astrocytes,[3],induced a decrease of cAMP and an induction of ERK phosphorylation
same,calcium mobilization and ERK signaling,human and murine FPR2,can induce calcium mobilization and ERK signaling
same,FPR2-dependent pro-inflammatory effects,[4],"led to the induction of oxidative stress, the release of pro-inflammatory cytokines, and chemotaxis"
same,intracellular uptake via FPRs,[5],FPRs mediate the intracellular uptake of Aβ1-42
same,TEM aggregate morphology,[6]; Aβ1-42 from P&E,somewhat similar amorphous morphology
same,TEM aggregate morphology,[6]; Aβ1-42 from Synpeptide,somewhat similar amorphous morphology
same,TEM aggregate morphology,[6]; HFIP-treated Aβ1-42 from Anaspec,somewhat similar amorphous morphology
same,TEM aggregate morphology,[6]; non-HFIP–treated Aβ1-42 from Anaspec,seemed to directly form long fibers
same,"threshold for minimal detectable activation, mFpr2",mFpr2; [11],3 µM
same,"Ca2+ response, mFpr2",mFpr2; [12],"weakly activated hFPR3, mFpr1, and mFpr2"
same,decrease of hFPR1 response by DMSO,hFPR1 [7]; [10],40%
same,"reduction of signal amplitude, hFPR1, in Tris–NaCl versus C1",hFPR1 [7]; [8],approximately 50%
same,"Ca2+ response, hFPR1","hFPR1 [7]; Aβ1-42 from P&E in C1 buffer, n = 3, N = 2, compared with the other FPRs",even more sensitive and had a higher signal amplitude than any other receptor
same,"Ca2+ response, hFPR1",hFPR1 [7]; [9],failed to activate hFPR1
same,"Ca2+ response, hFPR1",hFPR1 [7]; [14],the responses of hFPR1 and hFPR2 were lost
same,"threshold for minimal detectable activation, hFPR1","hFPR1 [7]; Ca2+ imaging, transfected HEK293T + Gα16, Calbryte 520, assay buffer C1 pH 7.2, peptide stock 30 μM in C1, n = 3, N = 1",3 µM
same,"Ca2+ response, mFpr1","mFpr1; Aβ1-42 from P&E in C1 buffer, compared with the other FPRs",even more sensitive and had a higher signal amplitude than any other receptor
same,"threshold for minimal detectable activation, mFpr1",mFpr1; [11],500 nM
same,"Ca2+ response, mFpr1","mFpr1; HFIP-treated Aβ1-42 from Anaspec, 10 μM","weakly activated hFPR3, mFpr1, and mFpr2"
same,"mFpr1 activation over all suppliers, buffers and solvents",mFpr1; [13],activated under almost all conditions
same,"Ca2+ response, mFpr1","mFpr1; non-HFIP–treated Aβ1-42 from Anaspec, 10 μM",potently activated mFpr1
